Results from patent publication US7829118B1, “Modified hyaluronic acid polymer compositions and related methods” (Carbylan Biosurgery, Inc., priority 2009, dated 2010).
Where “and” joins values, the source holds several entries; their conditions need not be identical. Identical values can stand only once.

System: Femoral Cartilage (medial femoral condyle) of goat stifle joint
Test: Modified Mankin scoring of femoral cartilage after intra-articular injection in goats (Example 34)
Assay type: in vivo
Settings: for Total Mankin Score / Mankin Score: Tide Mark Integrity / Mankin Score: Cells / Mankin Score: Safranin-O Stain / Mankin Score: Structure: RFC
Procedure: A lightly crosslinked hydrogel prepared by reaction of vinyl-sulfone-modified hyaluronic acid with PEG-dithiol (HA-VS-PEG-(SH)2), containing the corticosteroid, triamcinolone acetonide, was injected into the intraarticular space of the stifle joint of female goats. Morphological, synovial fluid and histological examinations were conducted to evaluate local and systemic effects of such injections. Details of the study are provided below.
All test materials were stored at room temperature prior to use. For each Test or Control Material, a 1.5 ml dosage was prepared for each individual intra-articular injection.
Study design was as follows.
The basic procedure for injection was identical for all subjects. All injections were performed under strict asepsis. The animals were anesthetized with an intravenous injection of Diazepam (0.1-0.5 mg/kg) and Ketamine (4.4-7.5 mg/kg) to effect. Each knee was physically examined for drawer, range of motion, swelling, temperature, crepitus, patella tracking, and valgus/varus abnormalities
All injections were conducted utilizing routine aseptic techniques. The left and right stifles were prepared for injection by clipping the areas, then cleansing them with chlorohexidine scrub. The animal was placed in dorsal recumbency. The right stifle was cleansed with chlorohexidine scrub alternating with 70% isopropyl alcohol three times and painted with iodine solution.
A standard technique was used to inject each stifle joint. A 2-inch by 21gauge sized sterile needle was introduced into the intra-articular space via an anteromedial approach. The lateral intercondylar notch wall of the medial femoral condyle was felt and the needle backed slightly off. 1.5 ml of the appropriate Test Material was injected into the right joint. The injection needle was removed and pressure was maintained on the injection site. The injected stifle joint was then cycled 20-times through a full range of motion. Immediately following this, the left stifle joint was cleansed with chlorohexidine scrub alternating with 70% isopropyl alcohol three times and painted with iodine solution and 1.5 ml of the Control Material was injected into the left stifle joint in a similar manner as described above for the right stifle. The injection needle was removed and pressure maintained on the injection site. The injected stifle joint was then cycled 20-times through a full range of motion.
Necropsy: Animals were humanely sacrificed at either 14 days or 28 days day post initial injection with an intravenous injection consisting of Diazepam 0.22 mg/kg and Ketamine 10 mg/kg for induction of general anesthesia. Following this, the anesthetized animals were given an IV overdose of concentrated potassium chloride (KCl) until the cardiac arrest had been verified.
Immediately after dissection and following gross joint surface evaluation a sagital section of each joint was cut through the medial femoral condyle (MFC). These sections were placed individually in 10% neutral buffered formalin. The fixed tissue was shipped by overnight carrier to Premier Laboratories for processing. The right and left MFC sections were processed using standard histological techniques and stained with hematoxylin and eosin (H&E) and Safranin-O (SAF-O) with a fast green counter stain. The slides from the MFC sections were evaluated by the Mankin Scoring System for osteoarthritis as described in Table 12.

[1] = Group 4, 8mg/ml, 14 day evaluation, MEAN
[2] = Group 8, 8mg/ml, 28 day evaluation, MEAN, animal that died prematurely not included
[3] = Group 3, 2mg/ml, 14 day evaluation, MEAN
[4] = Group 7, 2mg/ml, 28 day evaluation, MEAN

**Q.** Which results are given for `CC1(C)O[C@@H]2C[C@H]3[C@@H]4CCC5=CC(=O)C=C[C@]5(C)[C@@]4(F)[C@@H](O)C[C@]3(C)[C@]2(C(=O)CO)O1` [Triamcinolone Acetonide, triamcinolone acetonide]?
**A.** loss of Safranin O staining intensity portion of the modified Mankin score compared to either Groups 5 or 6 (Day 28, Groups 7 and 8 (2 and 8 mg/ml)): mild increase; change in modified Mankin scores from Day 14 to Day 28 (goat stifle, 1.5 ml intra-articular): increase

**Q.** For `CC1(C)O[C@@H]2C[C@H]3[C@@H]4CCC5=CC(=O)C=C[C@]5(C)[C@@]4(F)[C@@H](O)C[C@]3(C)[C@]2(C(=O)CO)O1` [Triamcinolone Acetonide 8mg/ml, triamcinolone acetonide], which “Total Mankin Score” value (Group 4, 8mg/ml, 14 day evaluation, right stifle 1.5 ml intra-articular, individual goats, maximal 14, normal 0) is on record?
**A.** The value was 9.0 and 3.0 and 4.0.

**Q.** What about the “Mankin Score: Tide Mark Integrity” value (Group 4, 8mg/ml, 14 day evaluation, right stifle 1.5 ml intra-articular, individual goats, score 0-1) of the same compound?
**A.** Its value is 0.0.

**Q.** And the “Mankin Score: Cells” value (Group 4, 8mg/ml, 14 day evaluation, right stifle 1.5 ml intra-articular, individual goats, score 0-3)?
**A.** Its value is 1.0 and 0.0 (2×).

**Q.** What about the “Mankin Score: Safranin-O Stain” value (Group 4, 8mg/ml, 14 day evaluation, right stifle 1.5 ml intra-articular, individual goats, score 0-4) of the same compound?
**A.** Its value is 3.0 (2×) and 4.0.

**Q.** And the “Mankin Score: Structure” value (Group 4, 8mg/ml, 14 day evaluation, right stifle 1.5 ml intra-articular, individual goats, score 0-6)?
**A.** Its value is 5.0 and 0.0 (2×).

**Q.** And the “Mankin Score: Cells” value [1]?
**A.** Its value is 0.3.

**Q.** What about the “Mankin Score: Safranin-O Stain” value [1] of the same compound?
**A.** The value was 3.3.

**Q.** What about the “Mankin Score: Structure” value [1] of the same compound?
**A.** Its value is 1.7.

**Q.** What about the “Mankin Score: Tide Mark Integrity” value [1] of the same compound?
**A.** Its value is 0.0.

**Q.** What about the “Total Mankin Score” value [1] of the same compound?
**A.** The value was 5.3.

**Q.** And the “Total Mankin Score” value (Group 8, 8mg/ml, 28 day evaluation, right stifle 1.5 ml intra-articular, individual goats (3588 RFC* died prematurely, 19 days), maximal 14, normal 0)?
**A.** The value was 12.0 and 6.0.

**Q.** And the “Total Mankin Score” value (Group 8, 8mg/ml, 28 day evaluation, right stifle 1.5 ml intra-articular, individual goats (3588 RFC* died prematurely, 19 days), maximal 14, normal 0, listed as Triamcinolone Acetonide 8mg/m1)?
**A.** Its value is 10.0.

**Q.** And the “Mankin Score: Tide Mark Integrity” value (Group 8, 8mg/ml, 28 day evaluation, right stifle 1.5 ml intra-articular, individual goats (3588 RFC* died prematurely, 19 days), score 0-1)?
**A.** Its value is 0.0.

**Q.** And the “Mankin Score: Cells” value (Group 8, 8mg/ml, 28 day evaluation, right stifle 1.5 ml intra-articular, individual goats (3588 RFC* died prematurely, 19 days), score 0-3)?
**A.** Its value is 3.0 and 1.0.

**Q.** And the “Mankin Score: Cells” value (Group 8, 8mg/ml, 28 day evaluation, right stifle 1.5 ml intra-articular, individual goats (3588 RFC* died prematurely, 19 days), score 0-3, listed as Triamcinolone Acetonide 8mg/m1)?
**A.** The value was 3.0.

**Q.** And the “Mankin Score: Safranin-O Stain” value (Group 8, 8mg/ml, 28 day evaluation, right stifle 1.5 ml intra-articular, individual goats (3588 RFC* died prematurely, 19 days), score 0-4)?
**A.** The value was 4.0.

**Q.** And the “Mankin Score: Safranin-O Stain” value (Group 8, 8mg/ml, 28 day evaluation, right stifle 1.5 ml intra-articular, individual goats (3588 RFC* died prematurely, 19 days), score 0-4, listed as Triamcinolone Acetonide 8mg/m1)?
**A.** The value was 3.0.

**Q.** What about the “Mankin Score: Structure” value (Group 8, 8mg/ml, 28 day evaluation, right stifle 1.5 ml intra-articular, individual goats (3588 RFC* died prematurely, 19 days), score 0-6) of the same compound?
**A.** The value was 5.0 and 1.0.

**Q.** What about the “Mankin Score: Structure” value (Group 8, 8mg/ml, 28 day evaluation, right stifle 1.5 ml intra-articular, individual goats (3588 RFC* died prematurely, 19 days), score 0-6, listed as Triamcinolone Acetonide 8mg/m1) of the same compound?
**A.** The value was 4.0.

**Q.** And the “Mankin Score: Cells” value [2]?
**A.** Its value is 2.0.

**Q.** And the “Mankin Score: Safranin-O Stain” value [2]?
**A.** The value was 4.0.

**Q.** And the “Mankin Score: Structure” value [2]?
**A.** Its value is 3.0.

**Q.** And the “Mankin Score: Tide Mark Integrity” value [2]?
**A.** Its value is 0.0.

**Q.** And the “Total Mankin Score” value [2]?
**A.** The value was 9.0.

**Q.** What does the source list for `CC1(C)O[C@@H]2C[C@H]3[C@@H]4CCC5=CC(=O)C=C[C@]5(C)[C@@]4(F)[C@@H](O)C[C@]3(C)[C@]2(C(=O)CO)O1` [Triamcinolone Acetonide 2mg/ml, triamcinolone acetonide]?
**A.** Total Mankin Score (Group 3, 2mg/ml, 14 day evaluation, right stifle 1.5 ml intra-articular, individual goats, maximal 14, normal 0): 4.0 and 7.0 and 8.0; Mankin Score: Tide Mark Integrity (Group 3, 2mg/ml, 14 day evaluation, right stifle 1.5 ml intra-articular, individual goats, score 0-1): 0.0; Mankin Score: Cells (Group 3, 2mg/ml, 14 day evaluation, right stifle 1.5 ml intra-articular, individual goats, score 0-3): 0.0 and 1.0 (2×); Mankin Score: Safranin-O Stain (Group 3, 2mg/ml, 14 day evaluation, right stifle 1.5 ml intra-articular, individual goats, score 0-4): 4.0 and 2.0 and 3.0; Mankin Score: Structure (Group 3, 2mg/ml, 14 day evaluation, right stifle 1.5 ml intra-articular, individual goats, score 0-6): 0.0 and 4.0 (2×); Mankin Score: Cells [3]: 0.7; Mankin Score: Safranin-O Stain [3]: 3.0; Mankin Score: Structure [3]: 2.7; Mankin Score: Tide Mark Integrity [3]: 0.0; Total Mankin Score [3]: 6.3; Total Mankin Score (Group 7, 2mg/ml, 28 day evaluation, right stifle 1.5 ml intra-articular, individual goats, maximal 14, normal 0): 6.0 and 9.0 and 10.0; Mankin Score: Tide Mark Integrity (Group 7, 2mg/ml, 28 day evaluation, right stifle 1.5 ml intra-articular, individual goats, score 0-1): 0.0; Mankin Score: Cells (Group 7, 2mg/ml, 28 day evaluation, right stifle 1.5 ml intra-articular, individual goats, score 0-3): 2.0 (2×) and 3.0; Mankin Score: Safranin-O Stain (Group 7, 2mg/ml, 28 day evaluation, right stifle 1.5 ml intra-articular, individual goats, score 0-4): 4.0 and 3.0 (2×); Mankin Score: Structure (Group 7, 2mg/ml, 28 day evaluation, right stifle 1.5 ml intra-articular, individual goats, score 0-6): 0.0 and 4.0 (2×); Mankin Score: Cells [4]: 2.3; Mankin Score: Safranin-O Stain [4]: 3.3; Mankin Score: Structure [4]: 2.7; Mankin Score: Tide Mark Integrity [4]: 0.0; Total Mankin Score [4]: 8.3
